Test [1] concerns the target human RORγt ligand binding domain (RORγt LBD) (Homo sapiens (Human), UniProt P51449). Kind of test: RORγt ThermoFluor® assay (thermal shift binding). The note with it: read-out: ThermoFluor® Assay, Kd. Summed up:
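Binding was inferred from thermal stabilisation (ΔTm) of the E. coli-expressed RORγt LBD (0.065 mg/mL), monitored by 1,8-ANS (60 μM) emission at 500 nm during a 1 °C/min ramp. Buffer was Hepes 100 mM pH 7.0 with NaCl, GSH and Tween-20.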

The next test addresses full-length human RORγt (Homo sapiens (Human), UniProt P51449). Briefly: RORγt (full-length human) reporter assay, Conditions B or C. The note with it: for inhibition at 3 µM: at 3 μM compound concentration; for pIC50: read-out: RORγt (FL) Reporter Assay B or C, IC50; for RORγt (FL) Reporter Assay B or C, % inhibition (value marked *): marked *: footnote not given; for IC50: RORγt (FL) Reporter Assay B or C, IC50 (μM). The format is cell-based. Summed up: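 Readout is dual luciferase: firefly (GAL4-driven) normalized to DMSO-only and saturating-reference controls, then to CMV-Renilla. Full-length human RORγt fused to GAL4-DBD was transiently expressed in HEK293T; compound exposure ran overnight (16-20 h) starting 4-6 h after transfection, final FBS 1.3%, DMSO 0.1%.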
A general note: A reporter such as luciferase makes a cellular process visible.

Setting [2] is: read-out: RORγt (FL) Reporter Assay B or C, % inhibition.

SMILES strings stand for the structures. pIC50, pKd: −log10 of the molar value. Read-outs that look alike come from different tables or passages of the source.

Sequence of full-length human RORγt (P51449 other isoform, or with tags, fused parts or gaps): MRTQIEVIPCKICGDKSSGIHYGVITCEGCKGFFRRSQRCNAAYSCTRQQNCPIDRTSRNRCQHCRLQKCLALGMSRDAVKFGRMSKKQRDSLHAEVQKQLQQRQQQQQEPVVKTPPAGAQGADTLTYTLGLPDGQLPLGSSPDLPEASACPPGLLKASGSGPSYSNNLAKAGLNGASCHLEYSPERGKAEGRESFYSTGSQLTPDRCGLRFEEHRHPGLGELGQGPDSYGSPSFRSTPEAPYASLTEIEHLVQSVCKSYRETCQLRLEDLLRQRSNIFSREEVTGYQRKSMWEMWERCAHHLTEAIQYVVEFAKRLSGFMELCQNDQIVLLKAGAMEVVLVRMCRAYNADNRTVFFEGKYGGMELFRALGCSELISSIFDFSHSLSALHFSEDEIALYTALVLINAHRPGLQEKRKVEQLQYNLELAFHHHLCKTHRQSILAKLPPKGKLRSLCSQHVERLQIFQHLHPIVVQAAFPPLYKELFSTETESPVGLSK
Sequence of human RORγt ligand binding domain (RORγt LBD) (P51449 other isoform, or with tags, fused parts or gaps): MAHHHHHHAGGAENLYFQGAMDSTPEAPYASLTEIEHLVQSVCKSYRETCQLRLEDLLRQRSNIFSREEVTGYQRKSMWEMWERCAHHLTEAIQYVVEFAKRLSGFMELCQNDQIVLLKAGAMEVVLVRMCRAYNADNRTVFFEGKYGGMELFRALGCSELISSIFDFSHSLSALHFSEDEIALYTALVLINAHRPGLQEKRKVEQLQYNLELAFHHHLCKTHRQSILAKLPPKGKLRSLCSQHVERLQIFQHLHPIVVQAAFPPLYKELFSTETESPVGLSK

A word on the pKd: it is −log10 of the Kd, conventionally taken in molar units. The term inhibition denotes the relative decrease from the control value, in per cent. One may read the pIC50 as the negative decadic logarithm of the IC50, by convention in mol/L. With `C[C@H]1CCCN1C(=O)c1nc(C(=O)NC[C@H](O)C(F)(F)F)sc1-c1cnc(NC(C)(C)C)cc1C(F)(F)F` (relative stereo) [Example 353, 5-(6-(tert-Butylamino)-4-(trifluoromethyl)pyridin-3-yl)-4-((S)-2-methylpyrrolidine-1-carbonyl)-N—((S*)-3,3,3-trifluoro-2-hydroxypropyl)thiazole-2-carboxamide], the pKd in test [1] was 8.80. For the same compound, the inhibition at 3 µM at full-length human RORγt (setting [2]) was 95%. Moreover, the negative-log IC50 (pIC50) at full-length human RORγt is 7.70.
Consider `C[C@H]1CCCN1C(=O)c1nc(C(=O)NCC(C)(C)O)sc1-c1cnc(N[C@H]2CCCCC2(F)F)cc1C(F)(F)F` (relative stereo) [Example 36, 5-(6-(((S*)-2,2-Difluorocyclohexyl)amino)-4-(trifluoromethyl)pyridin-3-yl)-N-(2-hydroxy-2-methylpropyl)-4-((S)-2-methylpyrrolidine-1-carbonyl)thiazole-2-carboxamide], for which the pKd in test [1] was 8.77. The pIC50 at full-length human RORγt (Conditions B or C) is 7.80. Moreover, the inhibition at 6 µM at full-length human RORγt (read-out: RORγt (FL) Reporter Assay B or C, % inhibition @ 6 μM, Conditions B or C, @ 6 μM) worked out at 116%.
Broadly, the IC50 is the concentration needed to halve the response being measured. Higher therefore signals weaker potency in that assay. As for `CC[C@H](Nc1cc(C(F)(F)F)c(-c2sc(C(=O)N[C@@H]3COC[C@H]3O)nc2C(=O)N2C3CCC2CC3)cn1)C(F)(F)F` [Example 155], the negative logarithm of the Kd (pKd) in test [1] was 8.96. Besides, at full-length human RORγt (Conditions B or C), the “RORγt (FL) Reporter Assay B or C, % inhibition (value marked *)” value (“RORγt … % inhibition (value marked *)” below) is on record as 103* % and it took 0.0058 µM to reach half-maximal inhibition (IC50).
Take `CC[C@H](Nc1cc(C(F)(F)F)c(-c2sc(C(=O)NCC(C)(C)O)nc2C(=O)N2CCCC[C@@H]2C)cn1)C(F)(F)F` [Example 112, N-(2-Hydroxy-2-methylpropyl)-4-((S)-2-methylpiperidine-1-carbonyl)-5-(6-(((S)-1,1,1-trifluorobutan-2-yl)amino)-4-(trifluoromethyl)pyridin-3-yl)thiazole-2-carboxamide]: the pKd in test [1] is 9.70. On full-length human RORγt (Conditions B or C), the “RORγt … % inhibition (value marked *)” value is 110* % and the pIC50 was 7.89.
`CC[C@H](Nc1cc(C(F)F)c(-c2sc(C(=O)N[C@@H]3C[C@@H]3O)nc2C(=O)N2CCC[C@@H]2C)cn1)C(F)(F)F` (relative stereo) [Example 211, 5-(4-(Difluoromethyl)-6-(((S)-1,1,1-trifluorobutan-2-yl)amino)pyridin-3-yl)-N-((1R*,2S*)-2-hydroxycyclopropyl)-4-((S)-2-methylpyrrolidine-1-carbonyl)thiazole-2-carboxamide]: the pKd in test [1] is 8.09. Besides, at full-length human RORγt (Conditions B or C), the “RORγt … % inhibition (value marked *)” value was 104* % and the negative-log IC50 (pIC50) is 7.85.
Consider `C[C@H]1CCCN1C(=O)c1nc(C(=O)NC[C@@H](O)C(F)(F)F)sc1-c1cnc(NC(C)(C)C)cc1C(F)(F)F` (relative stereo) [Example 354, 5-(6-(tert-Butylamino)-4-(trifluoromethyl)pyridin-3-yl)-4-((S)-2-methylpyrrolidine-1-carbonyl)-N—((R*)-3,3,3-trifluoro-2-hydroxypropyl)thiazole-2-carboxamide], for which, in test [1], the pKd is 9.01. Further, at full-length human RORγt (setting [2]), the inhibition at 3 µM is 93%. Also, the pIC50 on full-length human RORγt is 7.82.
Consider `CC[C@H](Nc1cc(C(F)F)c(-c2sc(C(=O)NC3CCC3O)nc2C(=O)N2CCC[C@@H]2C)cn1)C(F)(F)F` (stereo partly drawn) [Example 375, 5-(4-(Difluoromethyl)-6-(((S)-1,1,1-trifluorobutan-2-yl)amino)pyridin-3-yl)-N-(trans-2-hydroxycyclobutyl)-4-((S)-2-methylpyrrolidine-1-carbonyl)thiazole-2-carboxamide], for which, in test [1], the pKd is 8.24. The inhibition at 3 µM on full-length human RORγt (setting [2]) amounted to 105%. The pIC50 on full-length human RORγt is 7.54.
`C[C@H]1CCCN1C(=O)c1nc(C(=O)NCC(C)(C)O)sc1-c1cncc(NC2CCCCC2)c1C#N` [Comparator Example 2, (S)-5-(4-Cyano-5-(cyclohexylamino)pyridin-3-yl)-N-(2-hydroxy-2-methylpropyl)-4-(2-methylpyrrolidine-1-carbonyl)thiazole-2-carboxamide, reference compound]: in test [1], the pKd was 5.24. On full-length human RORγt (HEK293T cells), the pIC50 was 5.52.
For `C[C@H]1CCCN1C(=O)c1nc(C(=O)N[C@@H]2CC[C@H]2O)sc1-c1cnc(NC(C)(C)C)cc1C(F)(F)F` (relative stereo) [Example 370, 5-(6-(tert-Butylamino)-4-(trifluoromethyl)pyridin-3-yl)-N-((1R*,2R*)-2-hydroxycyclobutyl)-4-((S)-2-methylpyrrolidine-1-carbonyl)thiazole-2-carboxamide], the pKd in test [1] is 9.16. Moreover, the inhibition at 3 µM at full-length human RORγt (setting [2]) worked out at 96%. Besides, on full-length human RORγt, the pIC50 was 8.00.
On to `O=C(NC1CCS(=O)(=O)CC1)c1nc(C(=O)N2C3CCC2CC3)c(-c2cnc(N[C@@H](C3CC3)C(F)(F)F)cc2C(F)F)s1` [Example 436, 4-((1s,4s)-7-Azabicyclo[2.2.1]heptane-7-carbonyl)-5-[6-[[(1S)-1-cyclopropyl-2,2,2-trifluoro-ethyl]amino]-4-(difluoromethyl)-3-pyridyl]-N-(1,1-dioxothian-4-yl)thiazole-2-carboxamide], for which the pKd in test [1] was 9.00. In addition, at full-length human RORγt (at 1 μM compound concentration, read-out: RORγt (FL) Reporter Assay B or C, % inhibition), the inhibition at 1 µM came to 117%. In addition, the pIC50 at full-length human RORγt is 7.32.
With `CC[C@H](Nc1cc(C(F)F)c(-c2sc(C(=O)N[C@@H]3CC[C@@H]3O)nc2C(=O)N2CCC[C@@H]2C)cn1)C(F)(F)F` (relative stereo) [Example 381, 5-(4-(Difluoromethyl)-6-(((S)-1,1,1-trifluorobutan-2-yl)amino)pyridin-3-yl)-N-((1R*,2S*)-2-hydroxycyclobutyl)-4-((S)-2-methylpyrrolidine-1-carbonyl)thiazole-2-carboxamide], the pKd in test [1] is 8.17. Besides, the inhibition at 3 µM at full-length human RORγt (setting [2]) was found to be 107%. Moreover, the pIC50 at full-length human RORγt was 7.92.
In the case of `C[C@H]1CC(F)(F)CN1C(=O)c1nc(C(=O)NCC(C)(C)O)sc1-c1cnc(NCC2(C(F)(F)F)CC2)cc1C(F)F` [Example 275, 4-[(2S)-4,4-Difluoro-2-methyl-pyrrolidine-1-carbonyl]-5-[4-(difluoromethyl)-6-[[1-(trifluoromethyl)cyclopropyl]methylamino]-3-pyridyl]-N-(2-hydroxy-2-methyl-propyl)thiazole-2-carboxamide], the pKd in test [1] was 8.70. Also, at full-length human RORγt (setting [2]), the inhibition at 3 µM amounted to 99%. The pIC50 on full-length human RORγt is 7.85.
Consider `C[C@H]1CCCCN1C(=O)c1nc(C(=O)NCC(C)(C)O)sc1-c1cnc(NCC(C)(C)C)cc1C(F)F` [Example 114, (S)-5-(4-(Difluoromethyl)-6-(neopentylamino)pyridin-3-yl)-N-(2-hydroxy-2-methylpropyl)-4-(2-methylpiperidine-1-carbonyl)thiazole-2-carboxamide], for which, in test [1], the pKd is 9.31. Also, on full-length human RORγt (Conditions B or C), the “RORγt … % inhibition (value marked *)” value was 117* % and the pIC50 was 8.01.
As to `C[C@H](Nc1cc(C(F)(F)F)c(-c2sc(C(=O)NCC(C)(C)O)nc2C(=O)N2C3CCC2CC3)cn1)C(F)(F)F` [Example 82, 4-((1s,4s)-7-Azabicyclo[2.2.1]heptane-7-carbonyl)-N-(2-hydroxy-2-methylpropyl)-5-(4-(trifluoromethyl)-6-(((S)-1,1,1-trifluoropropan-2-yl)amino)pyridin-3-yl)thiazole-2-carboxamide], the pKd in test [1] was 8.32. Moreover, at full-length human RORγt (Conditions B or C), the “RORγt … % inhibition (value marked *)” value is given as 117* % and the IC50 was 0.079 µM.

The values are drawn from patent US10975068B2, “6-aminopyridin-3-yl thiazoles as modulators of RORγT” (Janssen Pharmaceutica NV, priority 2016, dated 2021).
